Laboratory results: paper PMC10455239, “Antimicrobial, Cytotoxic, and α-Glucosidase Inhibitory Activities of Ethanol Extract and Chemical Constituents Isolated from Homotrigona apicalis Propolis—In Vitro and Molecular Docking Studies” (Life, 2023)
In brackets after ≈: the same amount, converted by molar mass. Where two headings read alike, the source gives them in different places.

Experiments:
α-glucosidase [1] = molecular target: T1, α-glucosidase (Saccharomyces cerevisiae, UniProt P53341); experiment: biochemical
T1 construct: purchased Sigma-Aldrich G0660
T1 sequence (P53341 whole entry): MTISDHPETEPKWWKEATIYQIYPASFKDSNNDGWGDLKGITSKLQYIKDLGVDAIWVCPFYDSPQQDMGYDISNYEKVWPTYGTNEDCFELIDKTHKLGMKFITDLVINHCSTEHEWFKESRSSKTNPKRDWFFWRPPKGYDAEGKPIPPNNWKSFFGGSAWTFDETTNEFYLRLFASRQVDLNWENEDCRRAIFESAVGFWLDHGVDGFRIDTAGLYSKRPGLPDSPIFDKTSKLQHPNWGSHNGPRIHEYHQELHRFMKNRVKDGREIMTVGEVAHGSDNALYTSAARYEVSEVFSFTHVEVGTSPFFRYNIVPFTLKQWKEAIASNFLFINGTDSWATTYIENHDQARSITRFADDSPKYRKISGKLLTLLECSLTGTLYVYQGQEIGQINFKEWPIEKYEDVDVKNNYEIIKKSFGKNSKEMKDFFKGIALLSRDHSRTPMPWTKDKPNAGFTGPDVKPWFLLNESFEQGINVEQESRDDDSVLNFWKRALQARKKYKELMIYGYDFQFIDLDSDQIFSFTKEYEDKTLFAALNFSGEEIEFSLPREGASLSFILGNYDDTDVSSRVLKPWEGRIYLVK
Procedure: An assay for the α-glucosidase inhibitory activity was carried out by a modification of the published method. Briefly, solutions of α-glucosidase (Saccharomyces cerevisiae, G0660, Sigma-Aldrich, St. Louis, MO, USA) and p-nitrophenyl α-D-glucopyranoside (Sigma-Aldrich, St. Louis, MO, USA) were prepared in a phosphate buffer (100 mM, pH 6.8, Sigma-Aldrich, St. Louis, MO, USA). […] The compound solution (2 μL) and 40 µL of enzyme solution (0.5 U/mL) in 120 µL phosphate buffer were mixed. After 5 min of preincubation, 20 µL of 10 mM p-nitrophenyl α-D-glucopyranoside prepared in phosphate buffer was added, and the reaction mixture was incubated for 30 min at 37 °C. The reaction was quenched by the addition of 80 µL of 0.2 M Na2CO3. The absorbance of the released p-nitrophenol was measured at 410 nm using a Biotek reader. The % inhibition was calculated using the following equation:Inhibition (%) = [1 − (Asample/Acontrol)] ∗ 100
The IC50 values of the isolated compounds were calculated using the program Table Curve.

HepG-2 (human hepatoma) = experiment: Cytotoxicity assay (MTT); type: cell-based; settings: read-out: IC50 Hep-G2
Procedure: (§1) The cytotoxic assays were evaluated in triplicate against three cancer cell lines, namely KB (epidermal carcinoma), A-549 (human lung adenocarcinoma), and HepG-2 (human hepatoma) (ATCC), with a modification of the previously published method. The cells were cultured in Dulbecco’s D-MEM medium (Gibco, Life Technologies Corporation, Grand Island, NY, USA), supplemented with 10% fetal calf serum (Sigma-Aldrich, St. Loius, MO, USA), L-glutamine (2 mM) (Sigma-Aldrich, St. Loius, MO, USA), penicillin G (100 UI/mL), and streptomycin (100 μg/mL) (Sigma-Aldrich, St. Loius, MO, USA). The compound solutions were prepared in DMSO, and the cytotoxic assays were conducted in 96-well microtiter plates against the cancer cells (3 × 10^5 cells/mL concentration). After 48 h incubation at 37 °C in an air/CO2 (95:5) atmosphere, with or without isolated compounds, MTT reagent was added to each well (0.5 mg/mL). The cell growth was assessed by measuring the colorimetric of formazan at 570 nm using a microplate reader. […] Ellipticine was used as a positive reference.

KB (epidermal carcinoma) = experiment: Cytotoxicity assay (MTT); type: cell-based; settings: read-out: IC50 KB
Procedure: as §1

[2] = system: A-549 (human lung adenocarcinoma); experiment: Cytotoxicity assay (MTT); type: cell-based; settings: read-out: IC50 A-549
Procedure: as §1

Candida albicans = experiment: Antimicrobial activity, broth microdilution; type: cell-based; settings: for IC50: Candida albicans, read-out: IC50 C. albicans
Procedure: (§2) The antimicrobial activity assay was performed using the broth microdilution method. Dimethyl sulfoxide (DMSO) was used for the preparation of compound solutions at concentrations of 256 μg/mL, 64 μg/mL, 16 μg/mL, 4 μg/mL, and 1 μg/mL. Three strains of Gram-positive bacteria (Staphylococcus aureus, Bacillus cereus, and Lactobacillus fermentum); three strains of Gram-negative bacteria (Salmonella enterica, Escherichia coli, and Pseudomonas aeruginosa), and fungus Candida albicans (obtained from the American Type Culture Collection (ATCC)) were used for the test. Ampicillin, Cefotaxim, and Nystatin were used as positive controls for the Gram (+) bacterial and Gram (−) bacterial strains and C. albicans, respectively. The activity of the isolated compounds was expressed as an IC50 value (half-maximal inhibitory concentration). The IC50 values were calculated using the program […].

Staphylococcus aureus = experiment: Antimicrobial activity, broth microdilution; type: cell-based; settings: read-out: IC50 S. aureus
Procedure: as §2

Bacillus cereus = experiment: Antimicrobial activity, broth microdilution; type: cell-based; settings: read-out: IC50 B. cereus
Procedure: as §2

Escherichia coli = experiment: Antimicrobial activity, broth microdilution; type: cell-based; settings: for IC50: Escherichia coli, read-out: IC50 E. coli
Procedure: as §2

Lactobacillus fermentum = experiment: Antimicrobial activity, broth microdilution; type: cell-based; settings: read-out: IC50 L. fermentum
Procedure: as §2

Salmonella enterica = experiment: Antimicrobial activity, broth microdilution; type: cell-based; settings: Gram (−) strain; for IC50: Salmonella enterica, read-out: IC50 S. enterica
Procedure: as §2

Pseudomonas aeruginosa = experiment: Antimicrobial activity, broth microdilution; type: cell-based; settings: for IC50: Pseudomonas aeruginosa, read-out: IC50 P. aeruginosa
Procedure: as §2

[3] = system: KB, HepG-2, and A-549 cancer cell lines; experiment: Cytotoxicity assay (MTT), range over the three cell lines; type: cell-based; settings: range over three cell lines and both xanthones
Procedure: as §1

[4] = system: Gram (+) bacterial strains; experiment: Antibacterial activity, range over strains; type: cell-based; settings: range over strains and compounds
Procedure: as §2

α-glucosidase [5] = settings: cited from earlier work
[6] = IC50 (Table S1), Table S1, α-glucosidase
[7] = IC50 α-Glucosidase Inhibitory Activity, p-nitrophenyl α-D-glucopyranoside, pH 6.8, 37 °C
[8] = Table S1, α-glucosidase, read-out: IC50 (Table S1) (converted)
[9] = p-nitrophenyl α-D-glucopyranoside, pH 6.8, 37 °C, read-out: IC50 α-Glucosidase Inhibitory Activity

SMILES	IC50 (Candida albicans) [µg/mL]	IC50 (Staphylococcus aureus) [µg/mL]	IC50 (Bacillus cereus) [µg/mL]	IC50 (Escherichia coli) [µg/mL]	IC50 (Lactobacillus fermentum) [µg/mL]	IC50 (Salmonella enterica) [µg/mL]	IC50 (Pseudomonas aeruginosa) [µg/mL]	IC50 (α-glucosidase [1]; [8]) [µM]	IC50 (α-glucosidase [1]; [9]) [µM]	IC50 (HepG-2 (human hepatoma); HepG2, MTT, 48 h incubation) [µg/mL]	IC50 (KB (epidermal carcinoma); MTT, 48 h incubation) [µg/mL]	IC50 ([2]; A549, MTT, 48 h incubation) [µg/mL]	IC50 (Staphylococcus aureus; Gram (+) strain) [µg/mL]	IC50 (Bacillus cereus; Gram (+) strain) [µg/mL]	IC50 (Lactobacillus fermentum; Gram (+) strain) [µg/mL]	also measured
CC(C)=CCC[C@H](C(=O)O)[C@@H]1CC[C@]2(C)C3=C(CC[C@@]12C)[C@@]1(C)CC[C@@H](O)C(C)(C)[C@@H]1CC3 [Compound 6, 3α-hydroxytirucalla-8,24-dien-21-oic acid]	> 256	> 256	141 ± 4.14 (≈ 308 µM)	> 256	62.2 ± 1.24 (≈ 136 µM)	> 256	> 256	–	–	–	–	–	–	–	–	IC50 (α-glucosidase [1]; [6]): > 561 µM; IC50 (α-glucosidase [1]; [7]): > 561 µM; IC50 (HepG-2 (human hepatoma); HepG2, 48 h): 77.7 ± 8.09 µg/mL (≈ 170 µM); IC50 (KB (epidermal carcinoma); 48 h): 49.3 ± 5.21 µg/mL (≈ 108 µM); IC50 ([2]; A549, 48 h): 78.6 ± 7.69 µg/mL (≈ 172 µM)
CO/N=C(\C(=O)N[C@@H]1C(=O)N2C(C(=O)O)=C(COC(C)=O)CS[C@H]12)c1csc(N)n1 [C, Cefotaxim, reference compound]	–	–	–	–	–	–	–	–	–	–	–	–	–	–	–	IC50 E. coli (Escherichia coli; Gram (−) strain): 0.07 ± 0.02 µg/mL (≈ 0.154 µM); IC50 S. enterica (Salmonella enterica): 0.43 ± 0.05 µg/mL (≈ 0.944 µM); IC50 P. aeruginosa (Pseudomonas aeruginosa; Gram (−) strain): 4.34 ± 0.15 µg/mL (≈ 9.53 µM)
CC1(C)[C@H]2[C@H]3[C@@H](CC[C@]3(C)O)[C@](C)(O)CC[C@H]21 [Compound 2, 1αH,5βH-aromandendrane-4β,10α-diol]	> 256	> 256	> 256	> 256	> 256	> 256	> 256	> 1070	> 1070	> 128	> 128	> 128	–	–	–	–
Cc1c2ccncc2c(C)c2c1[nH]c1ccccc12 [Ellipticine, reference compound]	–	–	–	–	–	–	–	–	–	0.5 ± 0.03 (≈ 2.03 µM)	0.48 ± 0.03 (≈ 1.95 µM)	0.34 ± 0.02 (≈ 1.38 µM)	–	–	–	–
CC(C)=CCC/C(C)=C/Cc1c(O)c(CC=C(C)C)c(O)c2c(=O)c3cc(O)ccc3oc12 [Compound 8, cochinchinone A]	–	–	–	–	–	> 256	–	20.2	–	17.4 ± 1.03 (≈ 38.7 µM)	29.3 ± 2.07 (≈ 65.3 µM)	20.3 ± 1.34 (≈ 45.3 µM)	17.3 ± 0.87 (≈ 38.6 µM)	7.99 ± 0.33 (≈ 17.8 µM)	8.67 ± 0.38 (≈ 19.3 µM)	IC50 [3]: 7.55 to 29.3 µg/mL (≈ 16.8 to 65.3 µM); IC50 [4]: 0.56 to 17.3 µg/mL (≈ 1.25 to 38.6 µM); IC50 (Candida albicans; Fungus): 65.3 ± 3.54 µg/mL (≈ 146 µM); IC50 (Escherichia coli; Gram (−) strain): > 256 µg/mL; IC50 (Pseudomonas aeruginosa; Gram (−) strain): 35.4 ± 2.03 µg/mL (≈ 79 µM)
C[C@H]1[C@H](C)CC[C@]2(C(=O)O)CC[C@]3(C)C(=CC[C@@H]4[C@@]5(C)CC[C@H](O)C(C)(C)[C@@H]5CC[C@]43C)[C@H]12 [Compound 7, ursolic acid]	–	–	–	–	–	> 256	–	–	–	> 128	> 128	> 128	7.1 ± 0.25 (≈ 15.5 µM)	10.2 ± 0.67 (≈ 22.3 µM)	10.6 ± 0.7 (≈ 23.2 µM)	IC50 [4]: 0.56 to 17.3 µg/mL (≈ 1.23 to 37.9 µM); IC50 (Candida albicans; Fungus): > 256 µg/mL; IC50 (Escherichia coli; Gram (−) strain): > 256 µg/mL; IC50 (Pseudomonas aeruginosa; Gram (−) strain): > 256 µg/mL
COc1c(O)cc2oc3cc(O)c(CC=C(C)C)c(O)c3c(=O)c2c1CC=C(C)C [Compound 9, α-mangostin]	–	–	–	–	–	16.3 ± 0.78 (≈ 39.8 µM)	–	–	–	12.9 ± 0.68 (≈ 31.4 µM)	9.28 ± 0.58 (≈ 22.6 µM)	7.55 ± 0.25 (≈ 18.4 µM)	0.54 ± 0.07 (≈ 1.32 µM)	0.57 ± 0.07 (≈ 1.39 µM)	0.56 ± 0.09 (≈ 1.36 µM)	IC50 (α-glucosidase [1]; [6]): 4.63 µM; IC50 (α-glucosidase [1]; [7]): 4.63 µM; IC50 (α-glucosidase [1]; IC50 α-glucosidase, equivalent in μM, converted from μg/mL): 4.63 ± 0.24 µM; IC50 (α-glucosidase [5]; ref 59 (Nam K. Nguyen et al.)): 11.4 ± 2.3 µM; IC50 (α-glucosidase [5]; ref 60 (H. W. Ryu et al.)): 5 ± 0.1 µM; IC50 [3]: 7.55 to 29.3 µg/mL (≈ 18.4 to 71.3 µM); IC50 [4]: 0.56 to 17.3 µg/mL (≈ 1.36 to 42.2 µM); IC50 (Candida albicans; Fungus): 0.56 ± 0.06 µg/mL (≈ 1.36 µM); IC50 (Escherichia coli; Gram (−) strain): 7.89 ± 0.34 µg/mL (≈ 19.2 µM); IC50 (Pseudomonas aeruginosa; Gram (−) strain): 1.22 ± 0.09 µg/mL (≈ 2.97 µM)
CC(=O)O[C@H]1CC[C@]2(C)[C@H]3CC=C4[C@@H]5CC(C)(C)CC[C@]5(C(=O)O)CC[C@@]4(C)[C@]3(C)CC[C@H]2C1(C)C [Compound 5, acetyl oleanolic acid]	> 256	> 256	> 256	> 256	49.9 ± 1.06 (≈ 100 µM)	> 256	> 256	–	–	–	–	–	–	–	–	IC50 (α-glucosidase [1]; [6]): 16.9 µM; IC50 (α-glucosidase [1]; [7]): 16.9 µM; IC50 (HepG-2 (human hepatoma); HepG2, 48 h): > 128 µg/mL; IC50 (KB (epidermal carcinoma); 48 h): > 128 µg/mL; IC50 ([2]; A549, 48 h): > 128 µg/mL
C=C1CC[C@@H]2[C@H]([C@H]3[C@H]1CC[C@]3(C)O)C2(C)C [Compound 1, spathulenol]	> 256	> 256	> 256	> 256	–	> 256	> 256	> 1160	> 1160	> 128	> 128	> 128	–	–	206 ± 5.23 (≈ 934 µM)	–
CC1(C)[C@H]2[C@H]3[C@H](CC[C@@]3(C)O)[C@@](C)(O)CC[C@H]21 [Compound 4, 1βH,5βH-aromandendrane-4α,10β-diol]	> 256	> 256	> 256	> 256	> 256	> 256	> 256	> 1070	> 1070	> 128	89.1 ± 9.67 (≈ 374 µM)	> 128	–	–	–	–
C=C1CC[C@@H](O)[C@]2(C)CC[C@@H](C(C)C)[C@H](O)[C@@H]12 [Compound 3, 1β,6α-dihydroxy-4(15)-eudesmene]	> 256	> 256	> 256	> 256	> 256	> 256	> 256	> 1070	> 1070	> 128	> 128	> 128	–	–	–	–
C[C@@H]1[C@H](O)[C@@H](C)/C=C/C=C/CC/C=C/C=C/C=C/C=C/C(O[C@H]2O[C@H](C)[C@@H](O)[C@H](N)[C@@H]2O)CC2O[C@](O)(CC(O)C(O)CCC(O)CC(O)CC(O)CC(=O)O[C@H]1C)CC(O)C2C(=O)O (stereo partly drawn) [N, Nystatin, reference compound]	–	–	–	–	–	–	–	–	–	–	–	–	–	–	–	IC50 C. albicans (Candida albicans; Fungus): 1.32 ± 0.05 µg/mL (≈ 1.43 µM)
CC1(C)S[C@@H]2[C@H](NC(=O)[C@H](N)c3ccccc3)C(=O)N2[C@H]1C(=O)O [A, Ampicillin, reference compound]	–	–	–	–	–	–	–	–	–	–	–	–	0.02 ± 0.005 (≈ 0.0572 µM)	3.62 ± 0.15 (≈ 10.4 µM)	1.03 ± 0.07 (≈ 2.95 µM)	–
